Test results as given in ChEMBL document CHEMBL5154755, “Discovery of Novel Indazoles as Potent and Selective PI3Kδ Inhibitors with High Efficacy for Treatment of Hepatocellular Carcinoma” (J Med Chem, 2022).
Activity calls are given as the source filed them. No cut-off for these calls is given here.

What was measured:
[1] = system: Bel-7402; test: Antiproliferative activity against human Bel-7402 cells assessed as inhibition of cell growth incubated for 72 hrs by SRB assay; type: functional, cell-based; details: Bel-7402, 72 h
[2] = system: Hep 3B2; test: Antiproliferative activity against human Hep3B cells assessed as inhibition of cell growth incubated for 72 hrs by SRB assay; type: functional, cell-based
[3] = system: Bel-7402; test: Induction of apoptosis in human Bel-7402 cells assessed as increase in apoptotic cells at 50 uM for 24 hrs by TUNEL staining method; type: functional, cell-based
[4] = system: Bel-7402; test: cells; details: Homo sapiens, Bel-7402, 72 h, read-out: INH
[5] = system: HepG2; test: cells; details: Homo sapiens, HepG2, 72 h, read-out: INH
[6] = system: Hep 3B2; test: cells; details: Homo sapiens, Hep3B, 72 h, read-out: INH
[7] = system: HepG2; test: cells; details: Homo sapiens, HepG2, 72 h
Description: Antiproliferative activity against human HepG2 cells assessed as inhibition of cell growth incubated for 72 hrs by SRB assay

[8] = system: Bel-7402; test: animal or person; details: Mus musculus, Bel-7402, po, 336 h, read-out: INH
[9] = system: Bel-7402; test: Antitumor activity against human Bel-7402 cells xenografted in BAlb/c (nu/nu) mouse assessed as inhibition rate at 30 mg/kg, po daily measured after 14 days; type: functional; details: Bel-7402, 336 h, time 14 day
[10] = system: Bel-7402; test: Antitumor activity against human Bel-7402 cells xenografted in BAlb/c (nu/nu) mouse assessed as T/C ratio at 30 mg/kg, po daily measured after 14 days; type: functional; details: time 14 day
[11] = system: Bel-7402; test: Antitumor activity against human Bel-7402 cells xenografted in Balb/c (nu/nu) mouse assessed as tumor weight at 30 mg/kg, po qd after 14 days (Rvb=0.65 +/- 0.06 g); type: functional; details: time 14 day
[12] = system: Bel-7402; test: Antitumor activity against human Bel-7402 cells xenografted in Balb/c (nu/nu) mouse assessed as relative tumor volume at 30 mg/kg, po qd after 14 days (Rvb=25.69+/-2.73); type: functional; details: time 14 day
[13] = system: HepG2; test: Induction of apoptosis in human HepG2 cells assessed as increase in expression of cleaved caspase-3 at 1.5625 to 50 uM incubated for 24 hrs by Western blotting analysis; type: functional, cell-based; details: dose 1.5625-50 µM, DDE = dose-dependent effect
[14] = Toxicity in Balb/c (nu/nu) mouse xenografted with human Bel-7402 cells assessed as change in body weight at 20 to 40 mg/kg, po daily after 14 days; type: organism-based; details: in vivo, 336 h, dose 20-40 mg/kg, time 14 day
[15] = molecular target: Phosphatidylinositol 4,5-bisphosphate 3-kinase catalytic subunit alpha isoform (Homo sapiens, UniProt P42336); test: Inhibition of PI3Kalpha (unknown origin) using PIP2 as substrate incubated for 1 hr in presence of ATP by ADP-Glo assay
[16] = molecular target: Phosphatidylinositol 4,5-bisphosphate 3-kinase catalytic subunit beta isoform (Homo sapiens, UniProt P42338); test: Inhibition of PI3Kbeta (unknown origin) using PIP2 as substrate incubated for 1 hr in presence of ATP by ADP-Glo assay
[17] = molecular target: Phosphatidylinositol 4,5-bisphosphate 3-kinase catalytic subunit gamma isoform (Homo sapiens, UniProt P48736); test: Inhibition of PI3Kgamma (unknown origin) using PIP2 as substrate incubated for 1 hr in presence of ATP by ADP-Glo assay
[18] = system: HepG2; test: Induction of apoptosis in human HepG2 cells assessed as increase in expression of cleaved PARP at 1.5625 to 50 uM incubated for 24 hrs by Western blotting analysis; type: functional, cell-based; details: dose 1.5625-50 µM, DDE = dose-dependent effect
[19] = system: Bel-7402; test: Induction of apoptosis in human Bel-7402 cells assessed as increase in apoptotic cells at 12.5 to 50 uM for 24 hrs by TUNEL staining method; type: functional, cell-based; details: dose 12.5-50 µM
[20] = system: Bel-7402; test: Induction of apoptosis in human Bel-7402 cells assessed as decrease in EGf dependent Akt phosphorylation at serine 473 residue at 0.3 to 10 uM measured after 24 hrs by western blotting analysis; type: functional, cell-based; details: dose 0.3-10 µM, DDE = dose-dependent effect
[21] = system: Bel-7402; test: Induction of apoptosis in human Bel-7402 cells assessed as decrease in EGf dependent Akt phosphorylation at threonine 308 residue at 0.3 to 10 uM measured after 24 hrs by western blotting analysis; type: functional, cell-based; details: dose 0.3-10 µM, DDE = dose-dependent effect
[22] = system: HepG2; test: Induction of apoptosis in human HepG2 cells assessed as decrease in EGf dependent Akt phosphorylation at serine 473 residue at 0.3 to 10 uM measured after 24 hrs by western blotting analysis; type: functional, cell-based; details: dose 0.3-10 µM, DDE = dose-dependent effect
[23] = system: HepG2; test: Induction of apoptosis in human HepG2 cells assessed as decrease in EGf dependent Akt phosphorylation at threonine 308 residue at 0.3 to 10 uM measured after 24 hrs by western blotting analysis; type: functional, cell-based; details: dose 0.3-10 µM, DDE = dose-dependent effect
[24] = system: Bel-7402; test: Induction of apoptosis in human Bel-7402 cells xenografted in Balb/c (nu/nu) mouse assessed as increase in expression of cleaved PARP at 20 to 40 mg/kg, po daily after 14 days by western blot analysis; type: functional, organism-based; details: dose 20-40 mg/kg, time 14.0 day
[25] = system: Bel-7402; test: Induction of apoptosis in human Bel-7402 cells xenografted in Balb/c (nu/nu) mouse assessed as increase in expression of cleaved caspase-3 at 20 to 40 mg/kg, po daily after 14 days by western blot analysis; type: functional, organism-based; details: dose 20-40 mg/kg, time 14.0 day
[26] = system: Bel-7402; test: Induction of apoptosis in human Bel-7402 cells xenografted in Balb/c (nu/nu) mouse assessed as decrease in phosphorylation of Akt at serine 473 residue at 20 to 40 mg/kg, po daily after 14 days by western blot analysis; type: functional, organism-based; details: dose 20-40 mg/kg, time 14.0 day
[27] = system: Bel-7402; test: Induction of apoptosis in human Bel-7402 cells xenografted in Balb/c (nu/nu) mouse assessed as increase in apoptotic cells at 20 to 40 mg/kg, po daily after 14 days by DAPI staining based assay; type: functional, organism-based; details: dose 20-40 mg/kg, time 14.0 day
[28] = system: Bel-7402; test: Induction of apoptosis in human Bel-7402 cells xenografted in Balb/c (nu/nu) mouse assessed as decrease in cell proliferation at 20 to 40 mg/kg, po daily after 14 days by Ki-67 staining based immunohistochemical analysis; type: functional, organism-based; details: dose 20-40 mg/kg, time 14.0 day
[29] = system: Bel-7402; test: Induction of apoptosis in human Bel-7402 cells assessed as increase in expression of cleaved PARP at 1.5625 to 50 uM incubated for 24 hrs by Western blotting analysis; type: functional, cell-based; details: dose 1.5625-50 µM, DDE = dose-dependent effect
[30] = system: Bel-7402; test: Induction of apoptosis in human Bel-7402 cells assessed as increase in expression of cleaved caspase-3 at 1.5625 to 50 uM incubated for 24 hrs by Western blotting analysis; type: functional, cell-based; details: dose 1.5625-50 µM, DDE = dose-dependent effect

Phosphatidylinositol 4,5-bisphosphate 3-kinase catalytic subunit beta isoform, sequence (P42338 whole entry, canonical isoform): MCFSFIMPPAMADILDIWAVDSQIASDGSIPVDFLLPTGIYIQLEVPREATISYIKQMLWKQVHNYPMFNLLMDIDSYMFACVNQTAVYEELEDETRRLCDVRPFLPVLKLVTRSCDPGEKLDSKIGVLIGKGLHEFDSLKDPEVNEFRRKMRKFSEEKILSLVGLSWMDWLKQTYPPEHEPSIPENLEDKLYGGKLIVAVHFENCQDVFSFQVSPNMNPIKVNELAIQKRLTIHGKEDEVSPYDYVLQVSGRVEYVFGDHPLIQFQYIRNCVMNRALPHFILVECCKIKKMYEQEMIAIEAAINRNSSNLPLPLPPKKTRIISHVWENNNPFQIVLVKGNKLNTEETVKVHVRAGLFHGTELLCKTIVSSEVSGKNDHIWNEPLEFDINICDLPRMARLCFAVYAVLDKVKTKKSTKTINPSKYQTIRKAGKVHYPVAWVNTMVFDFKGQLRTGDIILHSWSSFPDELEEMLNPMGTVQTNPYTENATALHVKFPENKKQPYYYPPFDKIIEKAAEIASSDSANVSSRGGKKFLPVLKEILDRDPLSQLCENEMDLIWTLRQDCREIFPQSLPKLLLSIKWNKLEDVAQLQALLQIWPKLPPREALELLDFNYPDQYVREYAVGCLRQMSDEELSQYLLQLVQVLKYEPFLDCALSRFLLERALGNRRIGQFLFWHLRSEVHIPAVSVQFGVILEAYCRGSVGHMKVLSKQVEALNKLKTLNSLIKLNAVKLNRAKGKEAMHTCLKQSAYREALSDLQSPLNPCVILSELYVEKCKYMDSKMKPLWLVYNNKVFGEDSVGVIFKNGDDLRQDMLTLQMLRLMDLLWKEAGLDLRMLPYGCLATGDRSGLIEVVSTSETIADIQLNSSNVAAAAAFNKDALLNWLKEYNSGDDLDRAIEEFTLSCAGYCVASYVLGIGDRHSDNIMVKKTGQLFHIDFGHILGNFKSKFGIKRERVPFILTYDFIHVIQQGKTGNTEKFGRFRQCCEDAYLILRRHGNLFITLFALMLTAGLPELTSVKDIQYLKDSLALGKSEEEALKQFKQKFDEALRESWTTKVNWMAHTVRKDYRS
Phosphatidylinositol 4,5-bisphosphate 3-kinase catalytic subunit gamma isoform, sequence (P48736 whole entry, canonical isoform): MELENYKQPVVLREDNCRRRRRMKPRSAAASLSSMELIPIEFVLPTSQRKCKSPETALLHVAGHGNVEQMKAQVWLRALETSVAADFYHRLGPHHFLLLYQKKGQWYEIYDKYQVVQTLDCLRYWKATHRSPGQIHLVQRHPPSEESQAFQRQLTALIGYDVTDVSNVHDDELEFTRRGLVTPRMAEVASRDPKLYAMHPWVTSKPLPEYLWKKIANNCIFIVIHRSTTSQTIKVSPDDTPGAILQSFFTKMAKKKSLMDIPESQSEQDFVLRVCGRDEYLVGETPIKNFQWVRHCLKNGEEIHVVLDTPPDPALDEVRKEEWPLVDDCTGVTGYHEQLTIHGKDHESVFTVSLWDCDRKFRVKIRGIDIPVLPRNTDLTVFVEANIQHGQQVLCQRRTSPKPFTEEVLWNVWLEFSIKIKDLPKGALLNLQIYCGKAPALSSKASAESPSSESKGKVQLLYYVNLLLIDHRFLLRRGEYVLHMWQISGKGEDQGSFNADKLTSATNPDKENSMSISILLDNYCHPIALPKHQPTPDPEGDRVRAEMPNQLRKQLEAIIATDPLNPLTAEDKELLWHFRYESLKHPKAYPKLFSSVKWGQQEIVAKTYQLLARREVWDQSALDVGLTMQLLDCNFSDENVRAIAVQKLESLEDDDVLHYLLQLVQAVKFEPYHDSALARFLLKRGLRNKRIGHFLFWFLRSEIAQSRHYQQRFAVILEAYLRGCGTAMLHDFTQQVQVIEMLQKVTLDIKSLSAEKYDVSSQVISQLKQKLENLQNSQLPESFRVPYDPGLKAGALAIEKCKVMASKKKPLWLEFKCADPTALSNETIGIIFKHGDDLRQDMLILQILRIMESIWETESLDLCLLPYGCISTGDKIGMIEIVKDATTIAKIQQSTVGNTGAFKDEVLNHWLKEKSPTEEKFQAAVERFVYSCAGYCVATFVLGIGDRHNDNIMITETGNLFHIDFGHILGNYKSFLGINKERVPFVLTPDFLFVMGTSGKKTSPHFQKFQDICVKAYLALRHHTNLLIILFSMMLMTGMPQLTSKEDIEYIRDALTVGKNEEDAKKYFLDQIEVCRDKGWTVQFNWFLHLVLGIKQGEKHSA
Phosphatidylinositol 4,5-bisphosphate 3-kinase catalytic subunit alpha isoform, sequence (P42336 whole entry, canonical isoform): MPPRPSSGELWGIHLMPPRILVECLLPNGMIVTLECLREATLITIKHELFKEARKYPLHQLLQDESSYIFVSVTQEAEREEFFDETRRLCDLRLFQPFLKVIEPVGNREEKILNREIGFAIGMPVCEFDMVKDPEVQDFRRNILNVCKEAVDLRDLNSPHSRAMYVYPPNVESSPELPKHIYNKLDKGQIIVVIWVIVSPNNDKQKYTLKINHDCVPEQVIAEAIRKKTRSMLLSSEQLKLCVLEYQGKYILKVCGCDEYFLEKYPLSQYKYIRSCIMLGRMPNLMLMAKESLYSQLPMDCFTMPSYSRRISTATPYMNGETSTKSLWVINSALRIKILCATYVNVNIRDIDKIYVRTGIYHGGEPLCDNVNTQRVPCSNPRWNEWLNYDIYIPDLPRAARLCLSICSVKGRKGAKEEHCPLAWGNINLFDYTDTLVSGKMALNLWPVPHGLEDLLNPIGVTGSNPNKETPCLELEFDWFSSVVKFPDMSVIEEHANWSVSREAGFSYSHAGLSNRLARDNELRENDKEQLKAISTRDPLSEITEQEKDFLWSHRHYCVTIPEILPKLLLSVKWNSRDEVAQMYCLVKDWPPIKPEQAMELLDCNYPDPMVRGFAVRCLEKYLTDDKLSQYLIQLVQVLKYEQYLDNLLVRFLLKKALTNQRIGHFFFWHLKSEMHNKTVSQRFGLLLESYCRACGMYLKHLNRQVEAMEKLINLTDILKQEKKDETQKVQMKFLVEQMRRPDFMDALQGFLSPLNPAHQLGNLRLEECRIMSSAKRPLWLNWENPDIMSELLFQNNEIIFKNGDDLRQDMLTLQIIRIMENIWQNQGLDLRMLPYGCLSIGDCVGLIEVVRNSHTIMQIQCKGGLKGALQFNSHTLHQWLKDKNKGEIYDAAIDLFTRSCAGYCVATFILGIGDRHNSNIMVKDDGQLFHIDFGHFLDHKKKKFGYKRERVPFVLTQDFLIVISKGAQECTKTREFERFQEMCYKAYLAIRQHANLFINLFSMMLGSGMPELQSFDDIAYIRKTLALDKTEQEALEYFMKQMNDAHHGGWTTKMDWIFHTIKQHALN

For CC[C@H](Nc1ncnc2[nH]cnc12)c1nc2cccc(F)c2c(=O)n1-c1ccccc1 [IDELALISIB], the IC50 [1] was 66.2 µM, the IC50 [2] was 77.5 µM and the Activity [3] was “Active”. The inhibition at 10 µM [4] was 9%, the inhibition at 10 µM [5] was 20% and the inhibition at 10 µM [6] was 21%. For the same molecule, the IC50 [7] was 89.5 µM and the inhibition in vivo at 40 mg/kg [8] was 44.6%.
Molecule CNC(=O)c1cc(Oc2ccc(NC(=O)Nc3ccc(Cl)c(C(F)(F)F)c3)cc2)ccn1 [SORAFENIB] has an inhibition in vivo at 30 mg/kg [9] of 51.3%, a T/C [10] of 45.13% and an Activity [11] of 0.32 g. It also gave an Activity [12] of 11.6.
For C[C@H](Nc1nc(N)nc(N)c1C#N)c1nn(-c2cccnc2)c2cc(Cl)ccc12, the Activity [13] was “Dde”, the Activity [14] was “Non-Toxic” and the IC50 [15] was over 1 µM. For the same molecule, the IC50 [16] was 0.041 µM, the IC50 [17] was 0.275 µM and the IC50 [1] was 1.36 µM. For the same molecule, the IC50 [2] was 1.09 µM, the Activity [18] was “Dde” and the Activity [19] was “Active”. For the same molecule, the Activity [20] was “Dde”, the Activity [21] was “Dde” and the Activity [22] was “Dde”. For the same molecule, the Activity [23] was “Dde”, the Activity [24] was “Active” and the Activity [25] was “Active”. The Activity [26] was “Active”, the Activity [27] was “Active” and the Activity [28] was “Active”. The Activity [29] was “Dde”, the Activity [30] was “Dde” and the IC50 [7] was 0.53 µM.
